Laboratory results reported in patent US20090012038A1, “Methods for microbial biofilm destruction and interference with microbial cellular physiology” (priority 2004, published 2009).

Legend:
[1] = test system: S. oneidensis strain AS129 biofilm cells (IPTG inducible gfp); test: Transcription test in biofilm cells: IPTG-inducible gfp, GFP fluorescence by CLSM; assay type: cell-based, Shewanella oneidensis; settings: 10 mM IPTG in flow-through medium; after 1 hour
Method: In order to assure that rifampicin indeed inhibited transcription in biofilm cells under those conditions, we designed an experiment to test transcription in biofilm cells. Tester cells were S. oneidensis cells tagged with an IPTG inducible gfp under control of Pt, which is repressed by LacIQ. […] Upon addition of 10 mM ITPG to the flow-through-medium, the induction of GFP in biofilm cells was readily observed by CLSM throughout the entire biofilm and quantified. This assay is very sensitive, and after 1 hour, about 20% of the maximal inducible GFP fluorescence was observed.

[2] = test system: S. oneidensis biofilms; test: Stop-of-flow-induced detachment of biofilms in hydrodynamic flow chamber (CLSM, COMSTAT); assay type: cell-based, Shewanella oneidensis MR-1
Method: Transcription is not required for the oxygen starvation-induced detachment. To directly test whether transcription is required for detachment upon rapid decrease in molecular oxygen concentration, we grew biofilms of S. oneidensis in LM medium for 12 h, and subsequently switched the medium to a LM medium amended with 10 μg/ml rifampicin for 10 or 40 minutes, respectively. After that time period, the medium flow was stopped to induce detachment.
External addition of c-di-GMP reversibly prevents biofilm detachment. […] We, therefore, predicted that amending the flow through medium of a biofilm in a hydrodynamic system with c-di-GMP should prevent the induction of detachment after applying a stop-of-flow. To test this hypothesis, biofilms of wild type S. oneidensis were grown in LM medium. […] After 30 min, the flow was stopped to induce detachment and the non-detached biomass was quantified. […]
Microscopic visualization of and image acquisition from biofilms took place at the Stanford Biofilm Research Center using an upright Zeiss LSM510 Confocal Laser Scanning Microscope (Carl Zeiss, Jena, Germany) equipped with the following objectives: 10×/0.3 Plan-Neofluar, 20×/0.5W Achroplan, and 40×/1.2W C-Apochromat. […] Biofilm parameters, such as biomass, and average biofilm thickness were quantified with the program COMSTAT (Heydorn et al., 2000).

Structure (SMILES)	GFP fluorescence, share of the maximal inducible GFP fluorescence [1]	detachment after stop-of-flow following removal of c-di-GMP ([2]; flow resumed with LM devoid of c-di-GMP, 2 h incubation, then flow stopped)	detachment after stop-of-flow ([2]; wild type biofilm 12 h in LM, medium amended with 5 mM c-di-GMP, flow stopped after 30 min)
CC(C)S[C@@H]1O[C@H](CO)[C@H](O)[C@H](O)[C@H]1O [IPTG, isopropyl-D-D-thiogalactopyranosid]	about 20%	–	–
Nc1nc2c(ncn2[C@@H]2O[C@@H]3COP(=O)(O)O[C@H]4[C@@H](O)[C@H](n5cnc6c(=O)[nH]c(N)nc65)O[C@@H]4COP(=O)(O)O[C@H]3[C@H]2O)c(=O)[nH]1 [c-di-GMP, cyclic-bis(3′,5′)guanylic acid]	–	the biofilm still detached	no detachment was observed
